From patent US20240182948A1, “METHODS AND COMPOSITIONS FOR DETECTION OF TUMOR DNA” (The Broad Institute, Inc., priority 2021, published 2024)

Test system: macrophages co-incubated with apoptotic KPLG cells
Test: Chloroquine treatment of macrophages after co-incubation with apoptotic KPLG cells; recovery of tumor DNA from cell fractions
Type: cell-based, murine
Description: FIG. 9A: Cytoplasmic DNA mass recovered from macrophages with or without 25 μM CQ treatment for 3 hours. FIG. 9B: Nuclear DNA mass recovered from macrophages with or without 25 μM CQ treatment for 3 hours. FIG. 9C: Cytoplasmic KRAS G12D to WT ratio. Apoptotic KPLG cells were washed away after 1 hour of co-incubation with macrophages before CQ treatment. FIG. 9D: Nuclear KRAS G12D to WT ratio. Apoptotic KPLG cells were washed away after 1 hour of co-incubation with macrophages before CQ treatment.
To test if pharmacologically blocking the DNA degradation pathway could lead to increased recovery of tumor DNA in macrophages, apoptotic KPLG cells were co-incubated with macrophage cells for 1 hour, after which apoptotic cells were washed away, and macrophages were treated either with or without 25 μM chloroquine.
Cell lines: KPLG cells were kindly provided by the Jacks Laboratory at the Massachusetts Institute of Technology (MIT). BMDM were harvested from femurs of wild-type […] mice and DNase 2a−/− mice. KPLG cells were cultured in DMEM supplemented with 10% fetal bovine serum (Gibco) and 1% penicillin/streptomycin (Corning); BMDM cells were cultured in DMEM supplemented with 10% fetal bovine serum (Gibco) and 1% penicillin/streptomycin (Corning), and 15% L929 conditioned medium. All cells were cultured in a humidified atmosphere of 95% air and 5% CO2 at 37° C. The KPLG cell line was declared pathogen free after being subjected to murine pathogen testing by the Diagnostic Laboratory of the Division of Comparative Medicine (MIT).
Cell fractionation and DNA extraction: Cells were collected by centrifugation at 3000×g for 7 min. The cells were lysed using four volumes of lysis buffer (20 mM Tris-HCl, pH 7.4, 10 mM KCl, 2 mM MgCl2, 1 mM DTT, and 1 mM EDTA) for 20 min. on ice. The nuclear pellet was collected by centrifugation twice at 800×g for 5 min. The mitochondrial fraction was collected by centrifugation twice at 10,000×g for 10 min. The collected supernatant was used as the cytoplasmic fraction. […]

Compound: CCN(CC)CCCC(C)Nc1ccnc2cc(Cl)ccc12 (stereo not drawn) [Chloroquine, chloroquine]
- digestion of cytoplasmic tumor-derived DNA by macrophages (25 μM CQ treatment for 3 hours, legend of FIGS. 9A-9D): inhibits digestion
- total cytoplasmic DNA mass recovered from macrophages (25 μM chloroquine vs. no treatment, apoptotic KPLG cells washed away after 1 hour of co-incubation, FIG. 9A: treatment for 3 hours): increase
- presence of KRAS G12D in the cytoplasmic DNA fraction of macrophages (KRAS G12D to WT ratio) (25 μM chloroquine vs. no treatment, apoptotic KPLG cells washed away after 1 hour of co-incubation, TaqMan qPCR): increase
